Experimental data from patent US7335770B2, “Triazine compounds and their analogs, compositions, and methods” (Reddy U5 Therapeutics, Inc., priority 2004, dated 2008).
Structures can show the parent of a compound that is named as a salt. Where two headings read alike, the source gives them in different places.

Assays:
MCP1 = experiment: inhibition of TNF-induced MCP1; format: cell-based; conditions: @ 10 uM concentration; read-out: TNF-induced MCP1, In-vitro % of inhibition
Procedure: The activity of the compounds of the present invention in inhibiting glycated protein- and AGE-induced inflammation can be determined using the assays described herein and in U.S. patent application Ser. No. 10/026,335, which is herein incorporated in its entirety. Such assays comprise measurement of the specific activity of biological components involved in a known cellular response. The assays provide a measurable response in which the activity of the compounds is determined. One assay comprises measurement of the effects of compounds on an inflammatory response by cells to the presence of a stimulating agent. Yet another assay comprises endothelial cells that are stimulated by the addition of a glycated protein, the stimulating agent. The endothelial cells respond by producing specific cytokines. The amount of cytokines produced are determined by measurement protocols known to those skilled in the art. The compounds of the present invention are then added to the assay and the production of cytokines is measured. From the comparison of the assay without the compound with the assay with the compound, the biological effect of the compound can be determined. The compound may have an inhibitory effect, a stimulatory effect, or no effect at all.
The amount and type of cytokine produced can be determined using immunological methods, such as ELISA assays. The methods of the present invention are not limited by the type of assay used to measure the amount of cytokine produced, and any methods known to those skilled in the art and later developed can be used to measure the amount of cytokines produced in response to the stimulating agent and to the compound having unknown activity.
Assays for determining the activity of compounds capable of modulating inflammation include those taught in U.S. patent application Ser. No. 10/026,335 and 09/969,013, which are both expressly incorporated by reference. In general, once the baseline response to the stimulating agent for the production of cytokines by the endothelial cells is established, thus comprising the control levels for the screening assay, the methods comprise addition of compounds of the present invention. The effect of the compound on the baseline response is determined by comparing the amount of cytokine produced in the presence of the stimulating agent and the amount of cytokine produced in the presence of the stimulating agent and the compound of the present invention. In a preferred method, compounds that have inhibitory effects on the inflammation of the cells in the presence of glycated albumin are then used as therapeutic agents. One or more compounds may be added to the screening assay. Combinations or mixtures of compounds can be added. Different amounts and formulations of the compounds are added to determine the effects on the screening assay. The screening assay may also be used to determine stimulatory compounds or compounds that have no effects in the assay.

[1] = system: smooth muscle cells (SMC); experiment: anti-proliferation assay (perlecan); format: cell-based
Summary of the method: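 Compounds are added to smooth muscle cells in growth or serum-free medium. The change in proliferation is measured, e.g. by labelled-nucleotide incorporation into DNA, against untreated cells; IC50 values are given as activity bins.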

[2] = anti-proliferation assay (perlecan), class of IC50, read-out: Activity (note 1)
[3] = anti-proliferation assay (perlecan), some cells print no unit, read-out: Avg IC-50

**Q.** For COc1ccc(Nc2nc(NC3CCCCCC3)nc(OCc3cccc(C)n3)n2)cc1Cl, which inhibition at 10 µM (MCP1) is on record?
**A.** 48%

**Q.** With COc1ccc(Nc2nc(NC3CCCCCC3)nc(-c3cc(O)ccc3O)n2)cc1Cl as the compound, how does the inhibition at 10 µM (MCP1) read?
**A.** 100%

**Q.** For COc1ccc(Nc2nc(NC3CCCCCC3)nc(Oc3ccc(C#CC(C)(C)O)cc3)n2)cc1Cl, which melting point is on record?
**A.** 132 to 134 °C

**Q.** For Cc1ccc(Nc2nc(NC3CCCCCC3)nc(N(C)C3CCN(C)CC3)n2)cc1F, which melting point is on record?
**A.** 93 °C

**Q.** Which melting point does the source give for CN1CCC(N(C)c2nc(Nc3cccc(F)c3)nc(NC3CCCCCC3)n2)CC1 here?
**A.** 86 °C

**Q.** Which melting point does the source give for CCN1CCCC1CNc1nc(Nc2ccc(OCc3ccccc3)c(Cl)c2)nc(NC2CCCCCC2)n1 (stereo not shown) here?
**A.** 64 °C

**Q.** With COc1ccc(Nc2nc(NNC(=O)CCCCC3SCC4NC(=O)NC43)nc(NC3CCCCCC3)n2)cc1Cl (stereo not shown) as the compound, how does the melting point read?
**A.** 154 °C

**Q.** Which melting point does the source give for COc1ccc(Nc2nc(NC3CCCCCC3)nc(Oc3ccccc3I)n2)cc1Cl [Example 10, N^2-(3-chloro-4-methoxyphenyl)-N-4-cycloheptyl-6-(2-iodophenoxy)-1,3,5-triazine-4,2-diamine] here?
**A.** 206 to 208 °C

**Q.** Which melting point does the source give for COc1ccc(Nc2nc(NC3CCCCCC3)nc(Oc3ccccc3C#CC(C)(C)O)n2)cc1Cl [Example 12, 4-{2-[4-(3-chloro-4-methoxyanilino)-6-cycloheptylamino-1,3,5-triazine-2-yl-oxy]-phenyl}-2-methyl-3-butyn-2-ol] here?
**A.** 150 to 158 °C

**Q.** Which melting point does the source give for COc1ccc(Nc2nc(NC3CCCCCC3)nc(Oc3ccc(C=O)cc3)n2)cc1Cl [Example 15, 4-[4-(3-chloro-4-methoxyanilino)-6-cycloheptylamino-1,3,5-triazine-2-yl-oxy]-benzaldehyde] here?
**A.** 218 to 220 °C

**Q.** Which melting point does the source give for COc1ccc(Nc2nc(NC3CCCCCC3)nc(Oc3ccc(C(C)=O)cc3Cl)n2)cc1Cl [Example 19, 1-{3-chloro-4-[4-(3-chloro-4-methoxyphenylamino)-6-cycloheptylamino-[1,3,5]triazine-2-yloxy]phenyl}ethanone] here?
**A.** 186 to 196 °C

**Q.** Which melting point does the source give for COc1ccc(Nc2nc(NC3CCCCCC3)nc(OCC3CCCO3)n2)cc1Cl (stereo not shown) [Example 30, N-(3-Chloro-4-methoxy-phenyl)-N′-cycloheptyl-6-(tetrahydro-furan-2-ylmethoxy)-[1,3,5]triazine-2,4-diamine] here?
**A.** 61 °C

**Q.** For CCN1CCCC1CNc1nc(NC2CCCCCC2)nc(NC2CCC(O)CC2)n1 (stereo not shown) [Example 31, 4-{4-Cycloheptylamino-6-[(1-ethyl-pyrrolidin-2-ylmethyl)-amino]-[1,3,5]triazin-2-ylamino}-cyclohexanol], which melting point is on record?
**A.** 92 °C

**Q.** With COc1ccc(Nc2nc(NCCN)nc(NC3CCCCCC3)n2)cc1Cl [drawing 589, N-(2-Amino-ethyl)-N′-(3-Chloro-4-meth-oxy-phenyl)-N″-cyclo-heptyl-[1,3,5]triazine-2,4,6-triamine] as the compound, how does the IC50 [1, 2] read?
**A.** < 3000 nM

**Q.** And the IC50 [1, 3]?
**A.** 1000 nM

**Q.** Which results are given for CCN1CCCC1CNc1nc(Nc2ccc(C)c(F)c2)nc(NC2CCCCCC2)n1 (stereo not shown) [drawing 591, N-Cycloheptyl-N′-(1-ethyl-pyr-rolidin-2-ylmethyl)-N″-(3-fluoro--4-methyl-phenyl)-[1,3,5]tri-azine-2,4,6-triamine]?
**A.** IC50 [1, 2]: < 3000 nM; IC50 [1, 3]: 2780 nM

**Q.** For Cc1ccc(Nc2nc(NC3CCCCCC3)nc(N(C)C3CCN(C)CC3)n2)cc1F [drawing 592, N-Cycloheptyl-N′-(3-fluoro-4-meth-yl-phenyl)-N″-methyl-N″-(1-meth-yl-piperidin-4-yl)-[1,3,5]tri-azine-2,4,6-triamine], which IC50 [1, 2] is on record?
**A.** < 3000 nM

**Q.** And the IC50 [1, 3]?
**A.** 2250 nM

**Q.** With CN1CCC(N(C)c2nc(Nc3cccc([N+](=O)[O-])c3)nc(NC3CCCCCC3)n2)CC1 [drawing 593, N-Cycloheptyl-N′-methyl-N′-(1-meth-yl-piperidin-4-yl)-N″-(3-ni-tro-phenyl)-[1,3,5]triazine-2,4,6-tri-amine] as the compound, how does the IC50 [1, 2] read?
**A.** < 3000 nM

**Q.** What about the IC50 [1, 3] of the same compound?
**A.** 910 nM

**Q.** For COc1ccc(Nc2nc(NCCCCCNC(=O)CCCCC3SCC4NC(=O)NC43)nc(NC3CCCCCC3)n2)cc1Cl (stereo not shown) [drawing 594, 5-(2-Oxo-hexahydro-thieno[3,4-d]imi-dazol-4-yl)-pentanoic acid {5-[4-(3-chloro-4-methoxy-phenyl-amino)-6-cyclo-heptylamino-[1,3,5]triazin-2-yl-amino]-pentyl}-amide], which IC50 ([1]; read-out: Activity (note 1)) is on record?
**A.** < 3000 nM

**Q.** What about the IC50 ([1]; read-out: Avg IC-50) of the same compound?
**A.** 2200 nM

**Q.** What does the source list for COc1ccc(Nc2nc(NC3CCCCCC3)nc(NC3CCN(C(=O)CCCCC4SCC5NC(=O)NC54)CC3)n2)cc1Cl (stereo not shown) [drawing 595]?
**A.** IC50 ([1]; read-out: Activity (note 1)): < 3000 nM; IC50 ([1]; read-out: Avg IC-50): 710 nM

**Q.** What does the source list for COc1ccc(Nc2nc(NNC(=O)CCCCC3SCC4NC(=O)NC43)nc(NC3CCCCCC3)n2)cc1Cl (stereo not shown) [drawing 596, 5-(2-Oxo-hexahydro-thieno[3,4-d]imi-dazol-4-yl)-pentanoic acidN′-[4-(3-chloro-4-methoxy-phenyl-amino)-6-cyclo-heptylamino-[1,3,5]triazine-2-yl]-hy-drazide]?
**A.** IC50 ([1]; read-out: Activity (note 1)): 3000 to 7000 nM; IC50 ([1]; read-out: Avg IC-50): 5000 nM

**Q.** Which results are given for COc1ccc(Nc2nc(NCCNC(=O)CCCCC3SCC4NC(=O)NC43)nc(NC3CCCCCC3)n2)cc1Cl (stereo not shown) [drawing 597, of 5-(2-Oxo-hexahydro-thi-eno[3,4-d]imidazol-4-yl)-pen-tanoic acid {2,-[4-(3-chloro-4-meth-oxy-phenylamino)-6-cyclo-heptylamino-[1,3,5]triazin-2-yl-amino]-ethyl}-amide]?
**A.** IC50 [1, 2]: 3000 to 7000 nM; IC50 [1, 3]: 3200 nM

**Q.** With CN1CCC(N(C)c2nc(Nc3cccc(F)c3)nc(NC3CCCCCC3)n2)CC1 [drawing 598, N-Cycloheptyl-N′-(3-fluoro-phe-nyl)-N″-methyl-N″-(1-methyl-piper-idin-4-yl)-[1,3,5]triazine-2,4,6-tri-amine] as the compound, how does the IC50 [1, 2] read?
**A.** < 3000 nM

**Q.** And the IC50 [1, 3]?
**A.** 1230 nM

**Q.** With CCN1CCCC1CNc1nc(NC2CCCCCC2)nc(NC2CCC(O)CC2)n1 (stereo not shown) [drawing 599, 4-{4-Cycloheptylamino-6-[(1-eth-yl-pyrrolidin-2-ylmethyl)-amino]-[1,3,5]triazin-2-ylamino}-cyclo-hexanol] as the compound, how does the IC50 [1, 2] read?
**A.** 3000 to 7000 nM

**Q.** What about the IC50 [1, 3] of the same compound?
**A.** 4100 nM

**Q.** For CCN1CCCC1CNc1nc(Nc2ccc(OC)c(F)c2)nc(N2CCN(CC(=O)N3CCCC3)CC2)n1 (stereo not shown) [drawing 600, 2-{4-[4-[(1-Ethyl-pyrrolidin-2-yl-methyl)-amino]-6-(3-fluoro-4-meth-oxy-phenylamino)-[1,3,5tri-azin-2-yl]-piperazin-1-yl}-1-pyr-rolidin-1-yl-ethanonedihydrogen chloride salt], which inhibition at 20 µM ([1]; read-out: inhibition at 20 μM (printed in the Avg IC-50 column)) is on record?
**A.** 42%

**Q.** Which IC50 [1, 2] does the source give for CCOc1nc(Nc2ccc(OC)c(F)c2)nc(NC2CCCCCC2)n1 [drawing 601, N-Cycloheptyl-6-ethoxy-N′-(3-fluoro--4-methoxy-phenyl)-[1,3,5]tri-azine-2,4-diamine] here?
**A.** 3000 to 7000 nM

**Q.** What about the IC50 [1, 3] of the same compound?
**A.** 4500 nM

**Q.** With CCc1occc(=O)c1Oc1nc(Nc2ccc(OC)c(Cl)c2)nc(NC2CCCCCC2)n1 [drawing 616] as the compound, how does the inhibition at 10 µM (MCP1) read?
**A.** 48%

**Q.** With COc1ccc(Nc2nc(NC3CCCCCC3)nc(Oc3ccccc3F)n2)cc1Cl [drawing 618] as the compound, how does the inhibition at 10 µM (MCP1) read?
**A.** 10%

**Q.** For COc1ccc(Nc2nc(NC3CCCCCC3)nc(Oc3ccc(C(C)=O)cc3)n2)cc1Cl [drawing 624], which inhibition at 10 µM (MCP1) is on record?
**A.** 25%

**Q.** With COc1ccc(Nc2nc(NC3CCCCCC3)nc(Oc3ccc(/C=N\O)cc3)n2)cc1Cl [drawing 625] as the compound, how does the inhibition at 10 µM (MCP1) read?
**A.** 100%

**Q.** For COc1ccc(Nc2nc(NC3CCCCCC3)nc(Oc3ccc(C(C)=O)cc3Cl)n2)cc1Cl [drawing 626], which inhibition at 10 µM (MCP1) is on record?
**A.** 82%

**Q.** Which inhibition at 10 µM (MCP1) does the source give for COc1ccc(Nc2nc(NC3CCCCCC3)nc(Sc3ccccc3)n2)cc1Cl [drawing 628] here?
**A.** 10%

**Q.** Which inhibition at 10 µM (MCP1) does the source give for COc1ccc(Nc2nc(NC3CCCCCC3)nc(Sc3ccc(F)cc3)n2)cc1Cl [drawing 630] here?
**A.** 15%

**Q.** For COc1cc(OC)c(-c2nc(Nc3ccc(OC)c(Cl)c3)nc(NC3CCCCCC3)n2)c(OC)c1 [drawing 632], which inhibition at 10 µM (MCP1) is on record?
**A.** 10%

**Q.** Which inhibition at 10 µM (MCP1) does the source give for COc1ccc(Nc2nc(NC3CCCCCC3)nc(-c3c(O)ccc4ccccc34)n2)cc1Cl [drawing 634] here?
**A.** 100%

**Q.** With COc1ccc(Nc2nc(NCCNC(=O)OC(C)(C)C)nc(NC3CCCCCC3)n2)cc1Cl [{2-[4-(3-Chloro-4-methoxy-phenylamino)-6-cycloheptylamino-[1,3,5]triazin-2-ylamino]-ethyl}-carbamic acid tert-butyl ester] as the compound, how does the “activity in anti-proliferation assay (Perlecan), in words” value ([1]; using the same activity scale used in Table 3) read?
**A.** high activity
